Legend:
Type in all cases: biochemical
[1] = molecular target: T1, c-Raf-1 (Homo sapiens, UniProt P04049); experiment: AlphaScreen kinase assay, c-Raf-1; details: read-out: IC50, activity toward kinase c-Raf-1
T1 construct: purchased Upstate Biotechnology

[2] = molecular target: T2, Kit (Homo sapiens, UniProt P10721); experiment: AlphaScreen kinase assay, Kit; details: read-out: IC50, activity toward kinase Kit
T2 construct: P1332.N6 BI PTP KIT M552-K948-X COD; His6 (N); made in house; host or cells: E. coli (PTP1B co-expressed)
T2 sequence (P10721 with tags, fused parts or gaps): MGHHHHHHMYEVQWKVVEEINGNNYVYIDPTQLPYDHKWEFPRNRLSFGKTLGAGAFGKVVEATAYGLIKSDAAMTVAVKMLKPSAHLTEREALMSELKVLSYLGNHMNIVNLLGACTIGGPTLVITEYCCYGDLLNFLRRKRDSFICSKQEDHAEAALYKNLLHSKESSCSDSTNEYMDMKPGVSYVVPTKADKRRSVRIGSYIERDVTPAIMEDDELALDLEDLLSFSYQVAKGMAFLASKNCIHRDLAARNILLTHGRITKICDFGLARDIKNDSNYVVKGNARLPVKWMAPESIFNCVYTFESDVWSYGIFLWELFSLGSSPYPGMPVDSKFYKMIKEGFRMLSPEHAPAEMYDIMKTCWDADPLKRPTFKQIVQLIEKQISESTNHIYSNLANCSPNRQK

[3] = molecular target: Plk1 (Homo sapiens, UniProt P53350); experiment: AlphaScreen kinase assay, Plk1; details: read-out: IC50, activity toward kinase Plk1
Procedure, shortened: (§1)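 AlphaScreen, biotin-peptide substrate; streptavidin donor/anti-phospho acceptor beads; decreased emission = inhibition. Cpds 20 mM DMSO stock, 1:3 x 8 conc.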

[4] = molecular target: T3, FGFR1 (Homo sapiens, UniProt P11362, C488A/C584S); experiment: AlphaScreen kinase assay, FGFR1; details: read-out: IC50, activity toward kinase FGFR
T3 construct: P1351.pET N6 BI-PTP FGFR A458-E765-X C488A, C584S; made in house; host or cells: E. coli (PTP1B co-expressed)
T3 sequence (P11362 458-765 C488A/C584S): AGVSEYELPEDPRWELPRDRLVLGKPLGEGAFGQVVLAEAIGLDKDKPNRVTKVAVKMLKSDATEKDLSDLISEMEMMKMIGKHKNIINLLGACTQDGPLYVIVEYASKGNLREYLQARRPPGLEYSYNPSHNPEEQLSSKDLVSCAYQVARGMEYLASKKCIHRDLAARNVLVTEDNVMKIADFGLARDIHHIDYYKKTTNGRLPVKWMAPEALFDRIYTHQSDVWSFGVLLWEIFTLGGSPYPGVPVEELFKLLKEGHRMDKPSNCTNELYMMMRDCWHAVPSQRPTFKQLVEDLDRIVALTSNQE

[5] = molecular target: T4, B-Raf (Homo sapiens, UniProt P15056); experiment: AlphaScreen kinase assay, B-Raf; details: read-out: IC50, activity toward kinase B-Raf
T4 construct: purchased Upstate Biotechnology
T4 sequence (P15056 whole entry): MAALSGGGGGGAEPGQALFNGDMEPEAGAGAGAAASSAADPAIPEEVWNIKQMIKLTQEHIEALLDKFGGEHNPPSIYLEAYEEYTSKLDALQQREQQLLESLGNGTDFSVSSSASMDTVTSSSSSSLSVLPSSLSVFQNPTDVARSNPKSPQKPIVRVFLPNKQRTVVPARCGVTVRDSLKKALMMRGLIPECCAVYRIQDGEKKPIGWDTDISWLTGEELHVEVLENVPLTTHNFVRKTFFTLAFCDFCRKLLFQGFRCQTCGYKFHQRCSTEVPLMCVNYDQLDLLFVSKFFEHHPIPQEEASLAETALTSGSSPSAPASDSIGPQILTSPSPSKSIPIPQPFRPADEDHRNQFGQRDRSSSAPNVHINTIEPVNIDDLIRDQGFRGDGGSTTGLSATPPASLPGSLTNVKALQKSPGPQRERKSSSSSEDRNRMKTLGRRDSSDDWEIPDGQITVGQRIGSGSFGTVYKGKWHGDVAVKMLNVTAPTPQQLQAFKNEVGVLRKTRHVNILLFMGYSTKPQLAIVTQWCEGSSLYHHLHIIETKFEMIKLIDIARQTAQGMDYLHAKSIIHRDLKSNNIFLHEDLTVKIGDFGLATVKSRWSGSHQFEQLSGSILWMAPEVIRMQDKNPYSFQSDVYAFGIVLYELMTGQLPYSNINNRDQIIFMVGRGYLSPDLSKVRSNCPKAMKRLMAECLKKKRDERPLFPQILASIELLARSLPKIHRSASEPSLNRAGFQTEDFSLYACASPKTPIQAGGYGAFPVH

[6] = molecular target: T5, Fms (Homo sapiens, UniProt P07333); experiment: AlphaScreen kinase assay, Fms; details: read-out: IC50, activity toward kinase Fms
T5 construct: purchased Upstate Biotechnology
T5 sequence (P07333 20-972): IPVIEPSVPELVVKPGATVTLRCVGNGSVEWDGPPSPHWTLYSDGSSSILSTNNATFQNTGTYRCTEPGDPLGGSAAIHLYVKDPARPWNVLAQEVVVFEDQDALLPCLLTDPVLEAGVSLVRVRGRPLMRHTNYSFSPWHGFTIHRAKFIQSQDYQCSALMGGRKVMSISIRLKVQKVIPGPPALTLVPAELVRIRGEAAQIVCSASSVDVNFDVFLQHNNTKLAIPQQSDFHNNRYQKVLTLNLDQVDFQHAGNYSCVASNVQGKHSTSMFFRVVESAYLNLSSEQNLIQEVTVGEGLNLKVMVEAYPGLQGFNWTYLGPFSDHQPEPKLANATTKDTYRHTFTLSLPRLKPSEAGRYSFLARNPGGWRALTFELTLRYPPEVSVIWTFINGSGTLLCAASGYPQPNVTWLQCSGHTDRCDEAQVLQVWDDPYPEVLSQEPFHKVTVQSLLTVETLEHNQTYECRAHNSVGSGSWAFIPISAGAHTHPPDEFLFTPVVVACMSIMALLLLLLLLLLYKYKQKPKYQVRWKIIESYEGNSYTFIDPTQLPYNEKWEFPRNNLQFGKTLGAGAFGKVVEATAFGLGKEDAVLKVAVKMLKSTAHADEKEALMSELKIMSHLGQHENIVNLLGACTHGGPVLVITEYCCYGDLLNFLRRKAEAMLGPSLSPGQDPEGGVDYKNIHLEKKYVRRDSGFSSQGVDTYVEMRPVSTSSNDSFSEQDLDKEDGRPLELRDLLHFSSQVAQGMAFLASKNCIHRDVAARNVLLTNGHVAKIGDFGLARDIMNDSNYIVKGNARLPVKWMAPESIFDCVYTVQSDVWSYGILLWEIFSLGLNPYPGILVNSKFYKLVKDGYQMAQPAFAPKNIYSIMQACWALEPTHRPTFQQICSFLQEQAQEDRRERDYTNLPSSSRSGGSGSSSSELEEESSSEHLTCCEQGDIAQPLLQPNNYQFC

[7] = molecular target: T6, TEC (Homo sapiens, UniProt P42680); experiment: AlphaScreen kinase assay, TEC; details: read-out: IC50, activity toward kinase TEC
T6 sequence (P42680 1-631): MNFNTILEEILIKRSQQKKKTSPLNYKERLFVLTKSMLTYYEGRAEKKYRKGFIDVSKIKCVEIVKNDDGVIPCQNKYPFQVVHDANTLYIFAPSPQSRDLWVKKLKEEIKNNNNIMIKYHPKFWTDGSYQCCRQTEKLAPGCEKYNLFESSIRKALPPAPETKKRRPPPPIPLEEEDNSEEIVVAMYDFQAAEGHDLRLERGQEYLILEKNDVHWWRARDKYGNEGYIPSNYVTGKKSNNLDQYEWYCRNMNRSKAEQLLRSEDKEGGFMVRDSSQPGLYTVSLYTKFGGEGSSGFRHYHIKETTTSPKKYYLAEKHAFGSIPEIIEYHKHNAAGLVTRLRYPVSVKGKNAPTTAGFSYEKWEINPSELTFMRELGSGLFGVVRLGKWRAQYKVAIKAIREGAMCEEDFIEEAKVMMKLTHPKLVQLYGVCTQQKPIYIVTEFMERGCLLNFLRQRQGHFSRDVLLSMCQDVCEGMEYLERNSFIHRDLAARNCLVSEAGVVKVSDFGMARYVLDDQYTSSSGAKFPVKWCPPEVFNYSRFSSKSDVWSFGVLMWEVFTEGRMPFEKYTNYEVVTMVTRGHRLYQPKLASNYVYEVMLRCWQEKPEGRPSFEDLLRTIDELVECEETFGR
Source text: (§2) AlphaScreen assay was used to screen additional kinases. The assay is similarly dependent on the phosphorylation of a peptide substrate. In this assay, an antibody that recognizes phosphorylated substrate is bound to an acceptor bead. The peptide substrate is attached to biotin, which binds to a donor head that contains streptavidin. Thus phosphorylated substrate is bound by antibody and streptavidin, bringing the donor and acceptor heads into close proximity when kinase is not inhibited. The donor produces singlet oxygen which results in emission from the acceptor when they are in close proximity. Conversely, when kinase is inhibited, the donor and acceptor beads are not associated and the emission from the acceptor is reduced.
(§3) AlphaScreen assays were done using compounds dissolved in DMSO to a concentration of 20 mM. The compounds were diluted accordingly to the desired final concentrations in each sample well, using 1:3 serial dilution for a total of 8 concentration points.

[8] = molecular target: MAP4K4 (Homo sapiens, UniProt O95819); experiment: AlphaScreen kinase assay, MAP4K4; details: read-out: IC50, activity toward kinase MAP4K4
[9] = molecular target: T7, B-Raf V600E (Homo sapiens, UniProt P15056, V600E); experiment: AlphaScreen kinase assay, B-Raf V600E; details: read-out: IC50, activity toward kinase B-Raf V600E
T7 construct: P4254. pFastBacBD-CDC37 BRAF D437-K722-X, V600E; His6 with pFastBac HT leader (TEV site) (N); made in house; host or cells: Sf9 (baculovirus; chaperone CDC37 co-expressed)
T7 sequence (P15056 with tags, fused parts or gaps V600E): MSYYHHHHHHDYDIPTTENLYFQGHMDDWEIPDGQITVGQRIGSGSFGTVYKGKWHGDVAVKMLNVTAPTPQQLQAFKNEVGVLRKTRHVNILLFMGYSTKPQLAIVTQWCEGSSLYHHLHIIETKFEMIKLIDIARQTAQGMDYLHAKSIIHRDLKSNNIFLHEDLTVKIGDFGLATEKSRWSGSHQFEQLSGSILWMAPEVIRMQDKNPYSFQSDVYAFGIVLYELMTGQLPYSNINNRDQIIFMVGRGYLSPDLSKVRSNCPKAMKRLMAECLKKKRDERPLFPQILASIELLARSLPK

[10] = molecular target: Frk (Homo sapiens, UniProt P42685); experiment: AlphaScreen kinase assay, Frk; details: read-out: IC50, activity toward kinase Frk
Chain of Frk (P42685 whole entry): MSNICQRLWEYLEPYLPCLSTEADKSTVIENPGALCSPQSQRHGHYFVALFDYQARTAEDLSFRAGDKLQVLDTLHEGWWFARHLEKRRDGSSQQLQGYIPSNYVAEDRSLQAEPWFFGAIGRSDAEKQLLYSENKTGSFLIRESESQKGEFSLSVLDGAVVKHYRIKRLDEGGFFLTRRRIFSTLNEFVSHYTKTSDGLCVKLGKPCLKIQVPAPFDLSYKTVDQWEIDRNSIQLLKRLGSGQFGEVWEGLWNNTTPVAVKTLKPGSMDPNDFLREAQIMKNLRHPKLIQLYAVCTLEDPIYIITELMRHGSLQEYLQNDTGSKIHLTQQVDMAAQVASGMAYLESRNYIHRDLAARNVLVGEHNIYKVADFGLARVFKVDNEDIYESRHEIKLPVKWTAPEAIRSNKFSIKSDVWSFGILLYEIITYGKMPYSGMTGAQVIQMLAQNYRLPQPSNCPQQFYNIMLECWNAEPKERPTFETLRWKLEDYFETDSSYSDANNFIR
Source text: as §2, §3

[11] = molecular target: Csk (Homo sapiens, UniProt P41240); experiment: AlphaScreen kinase assay, Csk; details: read-out: IC50, activity toward kinase Csk
Source text: as §2, §3

[12] = molecular target: T8, Stk6 (Homo sapiens, UniProt O14965); experiment: Z'-Lyte FRET kinase assay (Invitrogen), Stk6; details: read-out: IC50, activity toward kinase Stk6
T8 construct: purchased Invitrogen (Carlsbad, Calif.), screening service
T8 sequence (O14965 1-403): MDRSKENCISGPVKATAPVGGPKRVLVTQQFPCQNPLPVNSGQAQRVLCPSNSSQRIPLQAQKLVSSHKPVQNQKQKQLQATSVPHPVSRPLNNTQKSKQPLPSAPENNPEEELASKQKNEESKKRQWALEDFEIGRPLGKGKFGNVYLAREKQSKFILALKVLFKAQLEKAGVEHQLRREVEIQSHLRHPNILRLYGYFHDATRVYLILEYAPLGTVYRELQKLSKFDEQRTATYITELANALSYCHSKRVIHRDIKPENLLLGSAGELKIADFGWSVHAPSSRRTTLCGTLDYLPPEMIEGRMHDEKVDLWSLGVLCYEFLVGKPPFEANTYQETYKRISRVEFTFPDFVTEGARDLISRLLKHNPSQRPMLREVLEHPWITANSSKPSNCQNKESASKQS

[13] = molecular target: Brk (Homo sapiens, UniProt Q13882); experiment: AlphaScreen kinase assay, Brk; details: read-out: IC50, activity toward kinase Brk
Chain of Brk (Q13882 whole entry): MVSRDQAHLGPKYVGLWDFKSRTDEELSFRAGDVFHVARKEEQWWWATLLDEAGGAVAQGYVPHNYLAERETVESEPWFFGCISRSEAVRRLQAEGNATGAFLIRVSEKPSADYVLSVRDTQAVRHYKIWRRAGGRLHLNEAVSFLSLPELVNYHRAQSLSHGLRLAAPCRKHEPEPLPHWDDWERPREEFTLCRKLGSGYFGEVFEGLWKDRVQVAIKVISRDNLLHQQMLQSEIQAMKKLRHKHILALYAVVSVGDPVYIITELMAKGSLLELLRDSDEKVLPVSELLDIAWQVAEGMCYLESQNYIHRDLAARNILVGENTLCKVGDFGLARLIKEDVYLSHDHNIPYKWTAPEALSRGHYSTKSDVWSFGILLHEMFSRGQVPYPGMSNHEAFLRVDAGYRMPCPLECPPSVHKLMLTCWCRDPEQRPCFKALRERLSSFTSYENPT
Source text: as §2, §3

[14] = molecular target: T9, Src (Homo sapiens, UniProt P12931); experiment: AlphaScreen kinase assay, Src; details: read-out: IC50, activity toward kinase Src
T9 construct: P1144. pET-N6 BI-PTP SRC V86-L536-X; made in house

[15] = molecular target: T10, Fak (Homo sapiens, UniProt Q05397); experiment: AlphaScreen kinase assay, Fak; details: read-out: IC50, activity toward kinase Fak
T10 construct: P1358.pFastBacHtb FAK S411-Q686-X; His6 with pFastBacHTb leader (TEV site) (N); made in house; host or cells: Sf9 (baculovirus)
T10 sequence (Q05397 411-686): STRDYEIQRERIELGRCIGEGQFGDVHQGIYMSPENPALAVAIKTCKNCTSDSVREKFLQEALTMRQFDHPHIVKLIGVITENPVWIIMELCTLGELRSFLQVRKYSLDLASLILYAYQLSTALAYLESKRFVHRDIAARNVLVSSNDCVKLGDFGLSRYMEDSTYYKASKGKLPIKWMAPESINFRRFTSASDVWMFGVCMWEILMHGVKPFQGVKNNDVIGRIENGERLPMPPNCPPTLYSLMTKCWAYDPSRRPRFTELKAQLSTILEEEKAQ

[16] = molecular target: T11, Flt1 (Homo sapiens, UniProt P17948); experiment: AlphaScreen kinase assay, Flt1; details: read-out: IC50, activity toward kinase Flt1
T11 construct: P1826.pETN6 BI-PTP FLT1 M799-D1165-X WT; His6 (N); made in house; host or cells: E. coli (PTP1B co-expressed)
T11 sequence (P17948 with tags, fused parts or gaps): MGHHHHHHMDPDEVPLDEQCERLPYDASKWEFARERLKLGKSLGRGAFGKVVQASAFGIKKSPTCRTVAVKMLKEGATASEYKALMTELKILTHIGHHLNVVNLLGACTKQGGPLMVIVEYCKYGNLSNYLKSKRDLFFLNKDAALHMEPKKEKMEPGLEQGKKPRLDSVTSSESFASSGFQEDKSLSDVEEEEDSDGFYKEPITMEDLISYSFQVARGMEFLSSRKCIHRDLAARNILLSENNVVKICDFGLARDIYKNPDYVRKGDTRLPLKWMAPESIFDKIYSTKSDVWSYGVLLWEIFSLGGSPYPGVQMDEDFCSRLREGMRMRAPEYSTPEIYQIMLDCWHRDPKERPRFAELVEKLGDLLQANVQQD

[17] = molecular target: T12, Btk (Homo sapiens, UniProt Q06187); experiment: Z'-Lyte FRET kinase assay (Invitrogen), Btk; details: read-out: IC50, activity toward kinase Btk
T12 construct: purchased Invitrogen (assay run by Invitrogen)

[18] = molecular target: T13, Jnk3 (Homo sapiens, UniProt P53779); experiment: AlphaScreen kinase assay, Jnk3; details: read-out: IC50, activity toward kinase Jnk3
T13 construct: purchased Upstate Biotechnology

[19] = molecular target: T14, Jnk1 (Homo sapiens, UniProt P45983); experiment: AlphaScreen kinase assay, Jnk1; details: read-out: IC50, activity toward kinase Jnk1
T14 construct: purchased Upstate Biotechnology

[20] = molecular target: Gsk3β (Homo sapiens, UniProt P49841); experiment: AlphaScreen kinase assay, Gsk3β; details: read-out: IC50, activity toward kinase Gsk3β
Procedure, shortened: as §1

[21] = molecular target: T15, Kdr (Homo sapiens, UniProt P35968); experiment: Z'-Lyte FRET kinase assay (Invitrogen), Kdr; details: read-out: IC50, activity toward kinase Kdr
T15 construct: purchased Invitrogen (assay run by Invitrogen)

T1 sequence (P04049 whole entry): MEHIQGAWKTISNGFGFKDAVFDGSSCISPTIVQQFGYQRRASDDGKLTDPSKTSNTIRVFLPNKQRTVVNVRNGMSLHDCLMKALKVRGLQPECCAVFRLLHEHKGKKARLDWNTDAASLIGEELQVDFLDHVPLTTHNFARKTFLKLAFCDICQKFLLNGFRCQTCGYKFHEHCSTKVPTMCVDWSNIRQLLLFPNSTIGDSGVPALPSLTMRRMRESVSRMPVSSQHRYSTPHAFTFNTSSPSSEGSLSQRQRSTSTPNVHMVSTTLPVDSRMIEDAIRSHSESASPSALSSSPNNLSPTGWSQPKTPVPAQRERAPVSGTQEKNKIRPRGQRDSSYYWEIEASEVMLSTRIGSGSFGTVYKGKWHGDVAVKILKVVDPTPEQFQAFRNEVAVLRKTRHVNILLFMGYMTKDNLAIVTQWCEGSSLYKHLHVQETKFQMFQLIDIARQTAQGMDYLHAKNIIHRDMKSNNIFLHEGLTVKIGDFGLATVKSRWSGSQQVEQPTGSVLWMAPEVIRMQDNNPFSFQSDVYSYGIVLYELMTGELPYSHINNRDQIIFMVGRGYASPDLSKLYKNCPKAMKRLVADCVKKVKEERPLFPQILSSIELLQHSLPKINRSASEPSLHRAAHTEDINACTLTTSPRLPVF

IC50 [1]	IC50 [2]	IC50 [4]	IC50 [5]	IC50 [6]	IC50 [7]	IC50 [9]	IC50 [10]	IC50 [11]	IC50 [13]	IC50 [14]	IC50 [15]	SMILES	further results
≤ 10 µM	≤ 10 µM	≤ 10 µM	≤ 10 µM	≤ 10 µM	≤ 10 µM	≤ 10 µM	–	–	–	–	–	O=C(c1c(F)ccc(NS(=O)(=O)c2ccccc2)c1F)c1c[nH]c2nccc(Cl)c12 [Compound P-0954, N-[3-(4-Chloro-1H-pyrrolo[2,3-b]pyridine-3-carbonyl)-2,4-difluoro-phenyl]-benzenesulfonamide]	IC50 [3]: ≤ 10 µM; IC50 [8]: ≤ 10 µM
≤ 10 µM	≤ 10 µM	≤ 10 µM	≤ 10 µM	≤ 10 µM	≤ 10 µM	≤ 10 µM	–	–	–	≤ 10 µM	–	O=C(Nc1ccc(F)c(C(=O)c2c[nH]c3ncc(-c4cccnc4)cc23)c1F)NC1CCCC1 [Compound P-1317, 1-Cyclopentyl-3-[2,4-difluoro-3-(5-pyridin-3-yl-1H-pyrrolo[2,3-b]pyridine-3-carbonyl)-phenyl]-urea]	IC50 [16]: ≤ 10 µM; IC50 [17]: ≤ 10 µM; IC50 [18]: ≤ 10 µM; IC50 [8]: ≤ 10 µM; IC50 [19]: ≤ 10 µM; IC50 [20]: ≤ 10 µM
≤ 10 µM	–	≤ 10 µM	≤ 10 µM	≤ 10 µM	–	≤ 10 µM	≤ 10 µM	≤ 10 µM	≤ 10 µM	≤ 10 µM	–	CCCS(=O)(=O)Nc1ccc(Cl)c(C(=O)c2c[nH]c3ncc(Br)cc23)c1F [Compound P-0805, Propane-1-sulfonic acid [3-(5-bromo-1H-pyrrolo[2,3-b]pyridine-3-carbonyl)-4-chloro-2-fluoro-phenyl]-amide]	IC50 [16]: ≤ 10 µM
≤ 10 µM	–	≤ 10 µM	≤ 10 µM	–	≤ 10 µM	≤ 10 µM	≤ 10 µM	≤ 10 µM	≤ 10 µM	≤ 10 µM	≤ 10 µM	O=C(c1c(F)ccc(NS(=O)(=O)N2CCCCC2)c1F)c1c[nH]c2ncc(Cl)cc12 [Compound P-1020, Piperidine-1-sulfonic acid [3-(5-chloro-1H-pyrrolo[2,3-b]pyridine-3-carbonyl)-2,4-difluoro-phenyl]-amide]	IC50 [17]: ≤ 10 µM

More lines, now with the values behind:

SMILES	IC50 [1]	IC50 [2]	IC50 [4]	IC50 [5]	IC50 [6]	IC50 [7]	IC50 [9]	IC50 [10]	IC50 [11]	IC50 [13]	IC50 [14]	IC50 [15]	further results
CCCS(=O)(=O)Nc1cccc(C(=O)c2c[nH]c3ncc(Cl)cc23)c1F [Compound P-1013, propane-1-sulfonic acid [3-(5-chloro-1H-pyrrolo[2,3-b]pyridine-3-carbonyl)-2-fluoro-phenyl]-amide]	≤ 10 µM	≤ 10 µM	–	≤ 10 µM	≤ 10 µM	–	≤ 10 µM	≤ 10 µM	≤ 10 µM	≤ 10 µM	≤ 10 µM	≤ 10 µM	IC50 [12]: ≤ 10 µM
CCCS(=O)(=O)Nc1cccc(C(=O)c2c[nH]c3ncc(Br)cc23)c1F [Compound P-0955, Propane-1-sulfonic acid [3-(5-bromo-1H-pyrrolo[2,3-b]pyridine-3-carbonyl)-2-fluoro-phenyl]-amide]	≤ 10 µM	≤ 10 µM	≤ 10 µM	≤ 10 µM	≤ 10 µM	–	≤ 10 µM	≤ 10 µM	≤ 10 µM	≤ 10 µM	≤ 10 µM	≤ 10 µM	IC50 [12]: ≤ 10 µM
CCCS(=O)(=O)Nc1ccc(F)c(C(=O)c2c[nH]c3ncc(-c4ccc(Cl)cc4)cc23)c1F [Compound P-0956, Propane-1-sulfonic acid {3-[5-(4-chloro-phenyl)-1H-pyrrolo[2,3-b]pyridine-3-carbonyl]-2,4-difluoro-phenyl}-amide]	–	≤ 10 µM	≤ 10 µM	–	≤ 10 µM	–	–	≤ 10 µM	≤ 10 µM	≤ 10 µM	≤ 10 µM	≤ 10 µM	IC50 [21]: ≤ 10 µM; IC50 [19]: ≤ 10 µM
